Data: patent publication US20150223452A1, “COMPOSITION COMPRISING A PESTICIDAL TERPENE MIXTURE AND A FUNGICIDE” (priority 2012, published 2015)
Read-outs that look alike come from different tables or passages of the source.

Tests used:
[1] = tested on: green peach aphid (Myzus persicae); experiment: Myzus persicae spray test; assay type: in vivo; conditions: 500 g ai/ha; mortality, Chinese cabbage leaf-disks
Procedure: (§1) Solvent: 78.0 parts by weight acetone • 1.5 parts by weight dimethylformamide
(§2) Emulsifier: 0.5 parts by weight alkylarylpolyglycolether
(§3) To produce a suitable preparation of active compound, 1 part by weight of active compound is mixed with the stated amount of solvent and emulsifier, and the concentrate is diluted with emulsifier-containing water to the desired concentration.
Chinese cabbage (Brassica pekinensis) leaf-disks infected with all instars of the green peach aphid (Myzus persicae) are sprayed with a preparation of the active ingredient of the desired concentration.
After the specified period of time, mortality in % is determined. 100% means that all aphids have been killed; 0% means that none of the aphids have been killed. The mortality values determined thus are recalculated using the Colby-formula (see above).

[2] = tested on: Sphaerotheca fuliginea; experiment: Sphaerotheca test (cucumbers)/preventive; assay type: in vivo; conditions: 7 days after inoculation
[3] = tested on: Phytophthora infestans; assay type: in vivo; conditions: 3 days after inoculation
[4] = tested on: two spotted spidermite (Tetranychus urticae); experiment: Tetranychus urticae spray test, OP-resistant; assay type: in vivo; conditions: 500 g ai/ha; mortality, French beans
Procedure: as §1, §2, §3
French beans (Phaseolus vulgaris) which are heavily infested with all stages of the two spotted spidermite (Tetranychus urticae), are sprayed with a preparation of the active ingredient of the desired concentration.
After the specified period of time, mortality in % is determined. 100% means that all spider mites have been killed and 0% means that none of the spider mites have been killed. The mortality values determined thus are recalculated using the Colby-formula (see sheet 1).

[5] = tested on: Venturia inaequalis; experiment: Venturia test (apples)/preventive
[6] = tested on: Botrytis cinerea; experiment: Botrytis test (beans)/preventive; conditions: 10 ppm a.i.; size of lesions 2 days after inoculation
Procedure: After the spray coating has dried on, 2 small pieces of agar covered with growth of Botrytis cinerea are placed on each leaf.
2 days after the inoculation, the size of the lesions on the leaves is evaluated.

COC(=O)N(OC)c1ccccc1COc1ccn(-c2ccc(Cl)cc2)n1 [Pyraclostrobin (F121), pyraclostrobin]
Efficacy in % after 6 d [1]: 70%

CCCN(CC)CC1COC2(CCC(C(C)(C)C)CC2)O1 (stereo not drawn) [Spiroxamine (F46), spiroxamine]
Efficacy in % found ([2]; 50 ppm a.i.): 19%

CO/C=C(/C(=O)OC)c1ccccc1Oc1cc(Oc2ccccc2C#N)ncn1 [Azoxystrobin (F107), azoxystrobin]
Efficacy in % found ([3]; 0.5 ppm a.i.): 30%

fosetyl-aluminium [Fosetyl-Al (F281)]
Efficacy in % after 6 d [4]: 70%

Cc1nn(C)c(F)c1C(=O)Nc1ccccc1C(C)CC(C)C (stereo not drawn) [F84 penflufen, penflufen]
Efficacy in % found ([5]; 2 ppm a.i., first series): 0%

N#Cc1c[nH]cc1-c1cccc2c1OC(F)(F)O2 [Fludioxonil (F248), fludioxonil]
Efficacy in % found ([2]; 50 ppm a.i.): 62%

O=C(NCCc1ncc(C(F)(F)F)cc1Cl)c1ccccc1C(F)(F)F [F70 fluopyram, fluopyram]
Efficacy in % found ([5]; 4 ppm a.i., first series): 4%

metalaxyl-M (mefenoxam) [Mefenoxam (F242)]
Efficacy in % found ([3]; 5 ppm a.i.): 3%

mancozeb [Mancozeb (F174)]
Efficacy in % found ([3]; 20 ppm a.i.): 45%

Cn1cc(C(=O)Nc2ccccc2-c2cc(F)c(F)c(F)c2)c(C(F)F)n1 [F72 fluxapyroxad, fluxapyroxad]
Efficacy in % found ([2]; 1 ppm a.i.): 29% | Efficacy in % found ([5]; 0.5 ppm a.i., first series): 43%

CSC1=N[C@@](C)(c2ccccc2)C(=O)N1Nc1ccccc1 [Fenamidone (F114), fenamidone]
Efficacy in % found ([2]; 50 ppm a.i.): 20%

fenhexamid [Fenhexamid (F16)]
Efficacy in % found [6]: 880%

COCC(=O)N(c1c(C)cccc1C)C(C)C(=O)OC (stereo not drawn) [Metalaxyl (F241), metalaxyl]
Efficacy in % found ([3]; 5 ppm a.i.): 5%

CC(C)Oc1cccc(NC(=O)c2ccccc2C(F)(F)F)c1 [Flutolanil (F71), flutolanil]
Efficacy in % found ([5]; 100 ppm a.i., second series): 4%
